Assay [1] has as its system CD11b expression in THP-1 (AML) cells. Nature of the assay: LSD1 CD11b cellular assay (flow cytometry). Type of assay: cell-based. Particulars: THP-1 cells, 4 days. Here is the method:
To analyze LSD1 inhibitor efficacy in cells, a CDL11b flow cytometry assay was performed. LSD1 inhibition induces CD11b expression in THP-1 (AML) cells which can be measured by flow cytometry. […] LSD 1 test compounds were serially diluted in DMSO. The dilutions were added to each well accordingly to a final concentration of 0.2% DMSO. The cells were incubated at 37 degrees Celsius in 5% CO2 for 4 days. 250 μL of each well was transferred to a well in a 96 well round bottom plate. The plate was centrifuged at 1200 rpm at 4 degrees Celsius in a Beckman Coulter Alegra 6KR centrifuge for 5 minutes. The media was removed leaving the cells at the bottom of the wells. The cells were washed in 100 μL cold HBSS (Hank's Balanced Salt Solution) plus 2% BSA (Bovine Serum Albumin) solution and centrifuged at 1200 rpm at 4 degrees Celsius for 5 minutes. The wash was removed. […] The cells were centrifuged and washed two times in 100 μl HBSS plus 2% BSA. After the final spin the cells were resuspended in 100 μL HBSS plus 2% BSA containing 1 ug/mL DAPI (4′,6-diamidino-2-phenylindole). The cells were then analyzed by flow cytometry in a BD FACSAria machine. Cells were analyzed for CD11b expression. The percent of CD11b expressing cells for each inhibitor concentration was used to determine an IC50 curve for each compound analyzed.
(In general: Flow cytometry measures light scatter and fluorescence of single cells or particles in a stream.)

Assay [2] concerns the target full-length human LSD1 (Homo sapiens (Human), UniProt O60341). Put plainly: In vitro enzyme inhibition assay LSD-1 (TR-FRET). Particulars: H3K4me1-biotin peptide. Format: biochemical. The method, then: This assay determines the ability of a test compound to inhibit LSD1 demethylase activity.
The enzymatic assay of LSD1 activity is based on Time Resolved-Fluorescence Resonance Energy Transfer (TR-FRET) detection.
Plates were read by EnVision Multilabel Reader in TR-FRET mode (excitation at 320 nm, emission at 615 nm and 665 nm) after 1 hour incubation at room temperature.
The ability of the compounds disclosed herein to inhibit LSD1 activity was quantified and the respective IC50 value was determined.

In general, IC50 refers to the concentration that inhibits the measured activity by half. `Cn1cc2cc(-c3c(-c4ccc(C#N)c(F)c4)cc(C(=O)NCC4CCNC4)n3C)ccc2n1` (stereo in doubt) [Example 33, N-[((3S)pyrrolidin-3-yl)methyl][4-(4-cyano-3-fluorophenyl)-1-methyl-5-(2-methyl(2H-indazol-5-yl))pyrrol-2-yl]carboxamide] showed an IC50 in assay [1] below 100 nM.
Regarding `Cc1ccc(-c2c(-c3ccc(C#N)cc3)cc(C(=O)N3CCC[C@@H](N)C3)n2C)cc1` [Example 1, 4-[5-(3-(R)-amino-piperidine-1-carbonyl)-1-methyl-2-p-tolyl-1H-pyrrol-3-yl]-benzonitrile], the IC50 in assay [1] (Homo sapiens, 96 h) is below 100 nM; in assay [2] it was below 100 nM.
Take `COc1ccc(-c2c(-c3ccc(C#N)c(F)c3)cc(C(=O)N3CCC[C@@H](N)C3)n2C)cc1` [Example 2, 4-[5-(3-(R)-amino-piperidine-1-carbonyl)-2-(4-methoxy-phenyl)-1-methyl-1H-pyrrol-3-yl]-2-fluoro-benzonitrile]: the IC50 in assay [1] (Homo sapiens, 96 h) was below 100 nM; in assay [2], below 100 nM.
For `Cc1ccc(-c2c(-c3ccc(C#N)cc3)cc(C(=O)N3CCC[C@@H](N)C3)n2CCO)cc1` [Example 3, 4-[5-(3-(R)-amino-piperidine-1-carbonyl)-1-(2-hydroxy-ethyl)-2-p-tolyl-1H-pyrrol-3-yl]-benzonitrile], the IC50 in assay [1] (Homo sapiens, 96 h) is below 100 nM; in assay [2], below 100 nM.
In the case of `Cc1ccc(-c2c(-c3ccc(C#N)c(F)c3)cc(C(=O)N3CCC[C@@H](N)C3)n2CCO)cc1` [Example 4, 4-[5-(3-(R)-amino-piperidine-1-carbonyl)-1-(2-hydroxy-ethyl)-2-p-tolyl-1H-pyrrol-3-yl]-2-fluoro-benzonitrile], the IC50 in assay [1] (Homo sapiens, 96 h) is below 100 nM; in assay [2], below 100 nM.
On to `Cc1ccc(-c2c(-c3ccc(C#N)cc3)cc(C(=O)N3CCC[C@@H](N)C3)n2C)cn1` [Example 5, 4-[5-(3-(R)-amino-piperidine-1-carbonyl)-1-methyl-2-(6-methyl-pyridin-3-yl)-1H-pyrrol-3-yl]-benzonitrile], for which the IC50 is below 100 nM in assay [1] (Homo sapiens, 96 h) and below 100 nM in assay [2].
As for `Cn1c(C(=O)N2CCC[C@@H](N)C2)cc(-c2ccc(C#N)cc2)c1-c1ccncc1` [Example 6, 4-[5-(3-(R)-amino-piperidine-1-carbonyl)-1-methyl-2-pyridin-4-yl-1H-pyrrol-3-yl]-benzonitrile], the IC50 was below 100 nM in assay [1] (Homo sapiens, 96 h) and below 100 nM in assay [2].
Consider `COc1ccc(-c2c(-c3ccc(C#N)cc3)cc(C(=O)N3CCC[C@@H](N)C3)n2CCO)cc1` [Example 7, 4-[5-(3-(R)-amino-piperidine-1-carbonyl)-1-(2-hydroxy-ethyl)-2-(4-methoxy-phenyl)-1H-pyrrol-3-yl]-benzonitrile], for which the IC50 in assay [1] (Homo sapiens, 96 h) is below 100 nM; in assay [2], below 100 nM.
For `COc1ccc(-c2c(-c3ccc(C#N)c(F)c3)cc(C(=O)N3CCC[C@@H](N)C3)n2CCO)cc1` [Example 8, 4-[5-(3-(R)-amino-piperidine-1-carbonyl)-1-(2-hydroxy-ethyl)-2-(4-methoxy-phenyl)-1H-pyrrol-3-yl]-2-fluoro-benzonitrile], the IC50 in assay [1] (Homo sapiens, 96 h) was below 100 nM; in assay [2], below 100 nM.
Turning to `Cc1ccc(-c2c(-c3ccc(C#N)c(F)c3)cc(C(=O)N3CCC[C@@H](N)C3)n2CCCO)cc1` [Example 9], the IC50 was below 100 nM in assay [1] (Homo sapiens, 96 h) and below 100 nM in assay [2].
Consider `Cn1c(C(=O)N2CCC[C@@H](N)C2)cc(-c2ccc(C#N)c(F)c2)c1-c1ccc2c(c1)ncn2C` [Example 10, 4-[5-(3-(R)-amino-piperidine-1-carbonyl)-1-methyl-2-(1-methyl-1H-benzoimidazol-5-yl)-1H-pyrrol-3-yl]-2-fluoro-benzonitrile], for which the IC50 was below 100 nM in assay [1] (Homo sapiens, 96 h) and below 100 nM in assay [2].
Take `COc1ccc(-n2c(-c3ccc(C#N)c(F)c3)nc(C(=O)N3CC[C@@H](N)C3)c2C)cc1` [Example 13, 4-[4-[(3R)-3-aminopyrrolidine-1-carbonyl]-1-(4-methoxyphenyl)-5-methylimidazol-2-yl]-2-fluorobenzonitrile]: the 50% inhibitory concentration (IC50) in assay [1] (Homo sapiens, 96 h) is 100 to 1000 nM; in assay [2], below 100 nM.
Molecule `Cn1cc2cc(-n3cc(C(=O)N4CCC[C@@H](N)C4)nc3-c3ccc(C#N)c(F)c3)ccc2n1` [Example 25, 4-[4-[(3R)-3-aminopiperidine-1-carbonyl]-1-(2-methylindazol-5-yl)imidazol-2-yl]-2-fluorobenzonitrile] yielded an IC50 in assay [2] below 100 nM.
On the same count and under the same terms, the figure for `Cn1cc2cc(-n3cc(C(=O)N4CC[C@H](N)C4)nc3-c3ccc(C#N)c(F)c3)ccc2n1` [Example 26, 4-[4-[(3S)-3-aminopyrrolidine-1-carbonyl]-1-(2-methylindazol-5-yl)imidazol-2-yl]-2-fluorobenzonitrile] is below 100 nM; for `Cn1ncc2cc(-n3cc(C(=O)N4CCC[C@@H](N)C4)nc3-c3ccc(C#N)c(F)c3)ccc21` [Example 27, 4-[4-[(3R)-3-aminopiperidine-1-carbonyl]-1-(1-methylindazol-5-yl)imidazol-2-yl]-2-fluorobenzonitrile] it is below 100 nM.
Take `Cn1ncc2cc(-n3cc(C(=O)N4CC[C@H](N)C4)nc3-c3ccc(C#N)c(F)c3)ccc21` [Example 28, 4-[4-[(3S)-3-aminopyrrolidine-1-carbonyl]-1-(1-methylindazol-5-yl)imidazol-2-yl]-2-fluorobenzonitrile]: the IC50 in assay [2] was below 100 nM.
Still for that read-out and setting: the result for `COc1ccc(-c2c(-c3ccc(C#N)c(F)c3)cc(C(=O)N3CCC[C@@H](N)C3)n2CC(N)=O)cc1` [Example 37, (R)-2-(5-(3-aminopiperidine-1-carbonyl)-3-(4-cyano-3-fluorophenyl)-2-(4-methoxyphenyl)-1H-pyrrol-1-yl)acetamide] reads below 100 nM.
Molecule `COc1ccc(-c2c(-c3ccc(C#N)c(F)c3)cc(C(=O)N3CCC[C@@H](N)C3)n2CCCC(=O)O)cc1` [Example 41, 4-{5-[((3R)-3-aminopiperidyl)carbonyl]-3-(4-cyano-3-fluorophenyl)-2-(4-methoxyphenyl)pyrrolyl}butanoic acid] came in with an IC50 in assay [1] (Homo sapiens, 96 h) of 100 to 1000 nM.
`CN1CC[C@@H](NC(=O)c2cn(-c3ccc4nn(C)c(Cl)c4c3)c(-c3ccc(C#N)c(F)c3)n2)C1` [Example 106, 1-(3-Chloro-2-methylindazol-5-yl)-2-(4-cyano-3-fluorophenyl)-N-[(3R)-1-methylpyrrolidin-3-yl]imidazole-4-carboxamide]: the IC50 in assay [2] is below 100 nM.
`CN1CC[C@H](NC(=O)c2cn(-c3ccc4nn(C)c(Cl)c4c3)c(-c3ccc(C#N)c(F)c3)n2)C1` [Example 107, 1-(3-Chloro-2-methylindazol-5-yl)-2-(4-cyano-3-fluorophenyl)-N-[(3S)-1-methylpyrrolidin-3-yl]imidazole-4-carboxamide]: in assay [2], the IC50 is below 100 nM.
Turning to `Cc1c(C(=O)N[C@@H]2CCN(C)C2)nc(-c2ccc(C#N)c(F)c2)n1-c1ccc2nn(C)cc2c1` [Example 108, 2-(4-Cyano-3-fluorophenyl)-5-methyl-1-(2-methylindazol-5-yl)-N-[(3R)-1-methylpyrrolidin-3-yl]imidazole-4-carboxamide], the IC50 in assay [2] was below 100 nM.
In assay [2], `Cc1c(C(=O)N[C@H]2CCN(C)C2)nc(-c2ccc(C#N)c(F)c2)n1-c1ccc2nn(C)cc2c1` [Example 109, 2-(4-Cyano-3-fluorophenyl)-5-methyl-1-(2-methylindazol-5-yl)-N-[(3S)-1-methylpyrrolidin-3-yl]imidazole-4-carboxamide] showed an IC50 below 100 nM.

The values are drawn from patent publication US10626103B2, “Inhibitor of lysine specific demethylase-1” (CELGENE QUANTICEL RESEARCH, INC., priority 2014, dated 2020).
